# Tests used:
# [1] = tested on: cells originated from human mouth tumour (KB-cells); assay: Test on inhibition of proliferation using cells originated from human mouth tumour (KB-cells); assay type: cell-based; conditions: 96 h, stationary culture at 37°C for 4 days, Trypan Blue staining, surviving cell number relative to control
# Method: The experimental methods and the results are described below. Test on Inhibition of Proliferation Using Cells Originated
# . The cells originated from human mouth tumour (KB-cells) were added to Eagle's MEM culture solution containing 10% bovine fetal serum, the number of cells in the culture solution was adjusted to 1 ×10^5 cells/ml, a solution in ethanol of compounds of the present invention was added to give a concentration of 5 µg/ml or below and the mixture was subjected to stationary culture at 37°C for 4 days. As a control, a culture solution containing 0.1% of ethanol was similarly cultured. After the culture, the cells were stained by the Trypan Blue staining method, and the surviving cell number was measured to determine the IC50 value from the degree of inhibition relative to the control.
# ICR male mice = assay: Test on increase of white blood cell (hematological test); assay type: in vivo; conditions: 3 mg/kg i.p. once a day for 14 days, blood collected on the day following the final administration
# Method: The experimental methods and results are described below. A solution of a compound of the present invention in ethanol was diluted with l% Tween 80 (registered Trade Mark) and the solution was intraperitoneally administered to ICR male mice of 6-7 weeks old once a day for 14 days. On the day following the final administration, the blood was collected by cardiac puncture with Anglot® (containing heparin and EDTA) as an anticoagulant. The blood was diluted with Seruento (registered Trade Mark), and the numbers of white blood cells and red blood cells were counted by a Micro Cell Counter (model CC-120).
# Acute toxicity = conditions: in vivo, iv; intravenously
smiles,measurement,setting,value
CCCCC[C@H](O)/C=C/[C@H]1C(=O)C=C[C@@H]1C/C=C\CCCC(=O)NCCNC(=O)CCC/C=C\C[C@H]1C=CC(=O)[C@@H]1/C=C/[C@@H](O)CCCCC [Example 1],IC50,[1],0.87 µg/mL
CCCCC[C@H](O)/C=C/[C@H]1C(=O)C=C[C@@H]1C/C=C\CCCC(=O)OCCOC(=O)CCC/C=C\C[C@H]1C=CC(=O)[C@@H]1/C=C/[C@@H](O)CCCCC [Example 1(h)],IC50,[1],< 1 µg/mL
CCCCC[C@H](O)/C=C/[C@H]1C(=O)C=C[C@@H]1C/C=C\CCCC(=O)NCCOC(=O)CCC/C=C\C[C@H]1C=CC(=O)[C@@H]1/C=C/[C@@H](O)CCCCC [Example 1(g)],IC50,[1],1.8 µg/mL
CCCCC[C@H](O)/C=C/[C@H]1C(=O)C[C@H](O)[C@@H]1C/C=C\CCCC(=O)NCCCNC(=O)CCC/C=C\C[C@H]1[C@@H](O)CC(=O)[C@@H]1/C=C/[C@@H](O)CCCCC [Example 3(a)],IC50,[1],1.9 µg/mL
CCCCCC=CC=C1C(=O)C=CC1CC=CCCCC(=O)NCCNC(=O)CCCC=CCC1C=CC(=O)C1=CC=CCCCCC (stereo not drawn) [Example 4],IC50,[1],0.47 µg/mL
"CCCCC[C@H](O)/C=C/[C@H]1C(=O)C=C[C@@H]1C/C=C\CCCC(=O)NCCCNC(=O)CCC/C=C\C[C@H]1C=CC(=O)[C@@H]1/C=C/[C@@H](O)CCCCC [Example 1(e), N,N'-bis[(5Z,13E)-(15S)-11-oxo-15-hydroxy-prosta-5,9,13-trienoyl]trimethylenediamine]",RBC (x10^4/mm^3),ICR male mice; red blood cells,793 ± 22.5 (p <0.001) x10^4/mm^3
same,WBC (x10^2/mm^3),ICR male mice; white blood cells,158 ± 17.0 (p <0.05) x10^2/mm^3
same,LD50,Acute toxicity,> 100 mg/kg
CCCCC[C@H](O)/C=C/[C@H]1C(=O)C=C[C@@H]1C/C=C\CCCC(=O)NCCCCNC(=O)CCC/C=C\C[C@H]1C=CC(=O)[C@@H]1/C=C/[C@@H](O)CCCCC [Example 1(f)],IC50,[1],1.17 µg/mL
